Experiments:
human ADAMTS-5 = human ADAMTS-5 (Homo sapiens (Human), UniProt Q9UNA0); settings: read-out: hADAMTS-5 potency IC50
Procedure: Finally, the fluorescence is read on the Envision (Perkin Elmer) after an incubation of 90 min at 37° C.

human TACE = human TACE (Homo sapiens (Human), UniProt P78536); settings: read-out: TACE potency IC50
Chain of human TACE (P78536 whole entry, looked up, change not shown): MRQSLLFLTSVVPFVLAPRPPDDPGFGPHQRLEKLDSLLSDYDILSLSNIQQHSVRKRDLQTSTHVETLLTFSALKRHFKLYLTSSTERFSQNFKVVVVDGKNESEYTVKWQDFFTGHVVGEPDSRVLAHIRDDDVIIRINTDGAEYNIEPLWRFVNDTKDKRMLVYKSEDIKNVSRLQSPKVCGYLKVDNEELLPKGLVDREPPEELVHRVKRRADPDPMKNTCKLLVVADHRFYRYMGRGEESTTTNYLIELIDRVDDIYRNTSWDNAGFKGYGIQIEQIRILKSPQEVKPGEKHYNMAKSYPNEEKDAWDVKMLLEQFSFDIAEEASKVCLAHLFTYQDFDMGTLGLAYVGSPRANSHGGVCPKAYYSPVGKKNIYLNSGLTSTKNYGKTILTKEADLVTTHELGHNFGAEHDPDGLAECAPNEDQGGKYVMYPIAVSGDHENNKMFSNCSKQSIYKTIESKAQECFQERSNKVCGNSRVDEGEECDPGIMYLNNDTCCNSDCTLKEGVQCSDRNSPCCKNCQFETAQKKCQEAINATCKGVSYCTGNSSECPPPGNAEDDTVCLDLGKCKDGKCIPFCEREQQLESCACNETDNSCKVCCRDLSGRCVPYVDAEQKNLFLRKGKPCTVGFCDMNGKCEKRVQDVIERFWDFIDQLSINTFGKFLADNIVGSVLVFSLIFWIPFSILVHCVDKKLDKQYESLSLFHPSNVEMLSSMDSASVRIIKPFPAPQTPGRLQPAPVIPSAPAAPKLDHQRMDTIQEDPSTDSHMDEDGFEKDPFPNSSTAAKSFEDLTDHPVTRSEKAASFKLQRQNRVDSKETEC

Chain of human ADAMTS-5 (Q9UNA0 262-930): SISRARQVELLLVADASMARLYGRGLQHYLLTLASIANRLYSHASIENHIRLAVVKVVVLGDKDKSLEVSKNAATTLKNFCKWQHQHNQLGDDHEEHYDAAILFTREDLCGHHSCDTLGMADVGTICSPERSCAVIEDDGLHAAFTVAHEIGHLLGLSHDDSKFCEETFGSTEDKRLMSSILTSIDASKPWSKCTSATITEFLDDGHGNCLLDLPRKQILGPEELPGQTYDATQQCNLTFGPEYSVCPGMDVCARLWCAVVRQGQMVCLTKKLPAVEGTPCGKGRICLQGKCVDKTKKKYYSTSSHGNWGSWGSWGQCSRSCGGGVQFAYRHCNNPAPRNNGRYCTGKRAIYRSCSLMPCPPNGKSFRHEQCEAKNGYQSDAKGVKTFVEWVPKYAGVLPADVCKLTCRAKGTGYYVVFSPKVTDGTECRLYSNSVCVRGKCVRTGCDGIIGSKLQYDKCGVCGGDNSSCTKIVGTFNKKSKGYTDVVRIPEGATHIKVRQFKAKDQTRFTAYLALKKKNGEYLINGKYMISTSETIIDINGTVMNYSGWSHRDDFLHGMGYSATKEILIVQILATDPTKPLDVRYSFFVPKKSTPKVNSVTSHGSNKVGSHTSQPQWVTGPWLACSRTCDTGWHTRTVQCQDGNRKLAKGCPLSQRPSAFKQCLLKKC

SMILES | IC50 (human ADAMTS-5) | IC50 (human TACE)
CC(CC1(C)NC(=O)NC1=O)C(=O)N1C[C@@H](C)N(c2cc(Cl)cc(Cl)c2)[C@@H](C)C1 (stereo partly drawn) [compound 243, 5-[3-[(3R,5S)-4-(3,5-dichlorophenyl)-3,5-dimethyl-piperazin-1-yl]-2-methyl-3-oxo-propyl]-5-methyl-imidazolidine-2,4-dione] | > 3890 nM | > 19500 nM
CC(CC1(CN2CCOCC2)NC(=O)NC1=O)C(=O)N1CCN(c2cc(Cl)cc(Cl)c2)[C@@H](C)C1 (stereo partly drawn) [compound 246, 5-[3-[(3S)-4-(3,5-dichlorophenyl)-3-methyl-piperazin-1-yl]-2-methyl-3-oxo-propyl]-5-(morpholinomethyl)imidazolidine-2,4-dione] | 114 nM | > 19500 nM
CC(=O)N1CC(C2(CC(C)C(=O)N3CCN(c4ccc(F)c(F)c4)CC3)NC(=O)NC2=O)C1 (stereo not drawn) [compound 248, 5-(1-acetylazetidin-3-yl)-5-[3-[4-(3,4-difluorophenyl)piperazin-1-yl]-2-methyl-3-oxo-propyl]imidazolidine-2,4-dione] | 49 nM | > 3780 nM
CC(CC1(CN2CCC(F)(F)C2)NC(=O)NC1=O)C(=O)N1CCN(c2cc(Cl)cc(Cl)c2)CC1 (stereo not drawn) [compound 252, 5-[3-[4-(3,5-dichlorophenyl)piperazin-1-yl]-2-methyl-3-oxo-propyl]-5-[(3,3-difluoropyrrolidin-1-yl)methyl]imidazolidine-2,4-dione] | 67 nM | 2690 nM
CC(CC1(CN2CCC(F)(F)C2)NC(=O)NC1=O)C(=O)N1CCN(c2ccc(F)c(Cl)c2)[C@@H](C)C1 (stereo partly drawn) [compound 253, 5-[3-[(3S)-4-(3-chloro-4-fluoro-phenyl)-3-methyl-piperazin-1-yl]-2-methyl-3-oxo-propyl]-5-[(3,3-difuoropyrrolidin-1-yl)methyl]imidazolidine-2,4-dione] | 35 nM | > 20000 nM
CC1(CC(CC#N)C(=O)N2CCN(c3cc(Cl)cc(Cl)c3)CC2)NC(=O)NC1=O (stereo not drawn) [compound 254, 4-[4-(3,5-dichlorophenyl)piperazin-1-yl]-3-[(4-methyl-2,5-dioxo-imidazolidin-4-yl)methyl]-4-oxo-butanenitrile] | 71 nM | 1000 nM
C[C@H]1CN(C(=O)CCC2(C3CC3)NC(=O)NC2=O)CCN1c1cc(Cl)ncn1 (stereo partly drawn) [compound 256, 5-[3-[(3S)-4-(6-chloropyrimidin-4-yl)-3-methyl-piperazin-1-yl]-3-oxo-propyl]-5-cyclopropyl-imidazolidine-2,4-dione] | 1410 nM | > 20000 nM
C[C@H]1CN(C(=O)CCC2(C3CC3)NC(=O)NC2=O)CCN1c1cc(Cl)cc(Cl)n1 (stereo partly drawn) [compound 257, 5-cyclopropyl-5-[3-[(3S)-4-(4,6-dichloro-2-pyridyl)-3-methyl-piperazin-1-yl]-3-oxo-propyl]imidazolidine-2,4-dione] | 1570 nM | > 4000 nM
C[C@H]1CN(C(=O)CCC2(C3CC3)NC(=O)NC2=O)CCN1c1cc(Cl)nc(Cl)c1 (stereo partly drawn) [compound 258, 5-cyclopropyl-5-[3-[(3S)-4-(2,6-dichloro-4-pyridyl)-3-methyl-piperazin-1-yl]-3-oxo-propyl]imidazolidine-2,4-dione] | 1530 nM | > 20000 nM
CC(CC1(c2ccccn2)NC(=O)NC1=O)C(=O)N1CCN(c2cccc(F)c2)[C@@H](C)C1 (stereo partly drawn) [compound 263, 5-[3-[(3S)-4-(3-fluorophenyl)-3-methyl-piperazin-1-yl]-2-methyl-3-oxo-propyl]-5-(2-pyridyl)imidazolidine-2,4-dione] | 19 nM | 2620 nM
CC(CC1(c2ccccn2)NC(=O)NC1=O)C(=O)N1CCN(c2ccc(F)c(F)c2)[C@@H](C)C1 (stereo partly drawn) [compound 264, 5-[3-[(3S)-4-(3,4-difluorophenyl)-3-methyl-piperazin-1-yl]-2-methyl-3-oxo-propyl]-5-(2-pyridyl)imidazolidine-2,4-dione] | 19 nM | > 4000 nM
Cc1cc(N2CCN(C(=O)CCC3(C)NC(=O)NC3=O)CC2)c(F)cc1Cl (stereo not drawn) [compound 267, 5-[3-[4-(4-chloro-2-fluoro-5-methyl-phenyl)piperazin-1-yl]-3-oxo-propyl]-5-methyl-imidazolidine-2,4-dione] | 3080 nM | > 4000 nM
CC(CC1(c2ccccn2)NC(=O)NC1=O)C(=O)N1CCN(c2cccc(Cl)c2)[C@@H](C)C1 (stereo partly drawn) [compound 269, 5-[3-[(3S)-4-(3-chlorophenyl)-3-methyl-piperazin-1-yl]-2-methyl-3-oxo-propyl]-5-(2-pyridyl)imidazolidine-2,4-dione] | 19 nM | 840 nM
CC(CC1(C)NC(=O)NC1=O)C(=O)N1C[C@H](C)N(c2cc(Cl)cc(Cl)c2)[C@@H](C)C1 (stereo partly drawn) [compound 271, 5-[3-[(3S,5S)-4-(3,5-dichlorophenyl)-3,5-dimethyl-piperazin-1-yl]-2-methyl-3-oxo-propyl]-5-methyl-imidazolidine-2,4-dione] | 1300 nM | > 20000 nM
C[C@H]1CN(C(=O)CCC2(C3CC3)NC(=O)NC2=O)CCN1c1ccc2[nH]ccc2c1 (stereo partly drawn) [compound 274, 5-cyclopropyl-5-[3-[(3S)-4-(1H-indol-5-yl)-3-methyl-piperazin-1-yl]-3-oxo-propyl]imidazolidine-2,4-dione] | > 4000 nM | > 20000 nM
CC(CC1(C)NC(=O)NC1=O)C(=O)N1CCN(c2cccnc2)[C@@H](C)C1 (stereo partly drawn) [compound 275, 5-methyl-5-[2-methyl-3-[(3S)-3-methyl-4-(3-pyridyl)piperazin-1-yl]-3-oxo-propyl]imidazolidine-2,4-dione] | 266 nM | > 20000 nM
O=C1NC(=O)C(CCC(=O)N2CCN(c3ccncc3)CC2)(C2CC2)N1 (stereo not drawn) [compound 278, 5-cyclopropyl-5-[3-oxo-3-[4-(4-pyridyl)piperazin-1-yl]propyl]imidazolidine-2,4-dione] | > 20000 nM | > 20000 nM
COCC1(CC(C)C(=O)N2CCN(c3cc(F)c(Cl)c(F)c3)CC2)NC(=O)NC1=O (stereo not drawn) [compound 279, 5-[3-[4-(4-chloro-3,5-difluoro-phenyl)piperazin-1-yl]-2-methyl-3-oxo-propyl]-5-(methoxymethyl)imidazolidine-2,4-dione] | 19 nM | 2990 nM
C[C@H]1CN(C(=O)CCC2(C3CC3)NC(=O)NC2=O)CCN1c1cccc2ccoc12 (stereo partly drawn) [compound 280, 5-[3-[(3S)-4-(benzofuran-7-yl)-3-methyl-piperazin-1-yl]-3-oxo-propyl]-5-cyclopropyl-imidazolidine-2,4-dione] | 275 nM | > 20000 nM
C[C@H]1CN(C(=O)CCC2(C3CC3)NC(=O)NC2=O)CCN1c1cccc(-c2cnn(C)c2)c1 (stereo partly drawn) [compound 283, 5-cyclopropyl-5-[3-[(3S)-3-methyl-4-[3-(1-methylpyrazol-4-yl)phenyl]piperazin-1-yl]-3-oxo-propyl]imidazolidine-2,4-dione] | 1080 nM | > 20000 nM
C[C@H]1CN(C(=O)CCC2(C3CC3)NC(=O)NC2=O)CCN1c1nccc(Cl)n1 (stereo partly drawn) [compound 284, 5-[3-[(3S)-4-(4-chloropyrimidin-2-yl)-3-methyl-piperazin-1-yl]-3-oxo-propyl]-5-cyclopropyl-imidazolidine-2,4-dione] | > 12000 nM | > 20000 nM
C[C@H]1CN(C(=O)CCC2(C3CC3)NC(=O)NC2=O)CCN1c1ccc(Cl)nn1 (stereo partly drawn) [compound 285, 5-[3-[(3S)-4-(6-chloropyridazin-3-yl)-3-methyl-piperazin-1-yl]-3-oxo-propyl]-5-cyclopropyl-imidazolidine-2,4-dione] | 892 nM | > 4000 nM
C[C@H]1CN(C(=O)CCC2(C3CC3)NC(=O)NC2=O)CCN1c1cnccn1 (stereo partly drawn) [compound 286, 5-cyclopropyl-5-[3-[(3S)-3-methyl-4-pyrazin-2-yl-piperazin-1-yl]-3-oxo-propyl]imidazolidine-2,4-dione] | > 4000 nM | > 20000 nM
C[C@H]1CN(C(=O)CCC2(C3CC3)NC(=O)NC2=O)CCN1c1cnc2ccccc2c1 (stereo partly drawn) [compound 289, 5-cyclopropyl-5-[3-[(3S)-3-methyl-4-(3-quinolyl)piperazin-1-yl]-3-oxo-propyl]imidazolidine-2,4-dione] | 97 nM | > 4000 nM
COCC(CC1(C)NC(=O)NC1=O)C(=O)N1CCN(c2cccc(F)c2)[C@@H](C)C1 (stereo partly drawn) [compound 292, 5-[3-[(3S)-4-(3-fluorophenyl)-3-methyl-piperazin-1-yl]-2-(methoxymethyl)-3-oxo-propyl]-5-methyl-imidazolidine-2,4-dione] | 48 nM | > 4000 nM
C[C@H]1CN(C(=O)CCC2(C3CC3)NC(=O)NC2=O)CCN1c1ccc2[nH]ncc2c1 (stereo partly drawn) [compound 296, 5-cyclopropyl-5-[3-[(3S)-4-(1H-indazol-5-yl)-3-methyl-piperazin-1-yl]-3-oxo-propyl]imidazolidine-2,4-dione] | > 4000 nM | > 20000 nM
C[C@H]1CN(C(=O)CCC2(C3CC3)NC(=O)NC2=O)CCN1c1ccc2c(cnn2C)c1 (stereo partly drawn) [compound 297, 5-cyclopropyl-5-[3-[(3S)-3-methyl-4-(1-methylindazol-5-yl)piperazin-1-yl]-3-oxo-propyl]imidazolidine-2,4-dione] | > 3620 nM | > 20000 nM
Cc1cc(N2CCN(C(=O)CCC3(C4CC4)NC(=O)NC3=O)C[C@@H]2C)ccc1F (stereo partly drawn) [compound 298, 5-cyclopropyl-5-[3-[(3S)-4-(4-fluoro-3-methyl-phenyl)-3-methyl-piperazin-1-yl]-3-oxo-propyl]imidazolidine-2,4-dione] | 192 nM | > 20000 nM
Cc1ccc(N2CCN(C(=O)CCC3(C4CC4)NC(=O)NC3=O)C[C@@H]2C)cc1F (stereo partly drawn) [compound 299, 5-cyclopropyl-5-[3-[(3S)-4-(3-fluoro-4-methyl-phenyl)-3-methyl-piperazin-1-yl]-3-oxo-propyl]imidazolidine-2,4-dione] | 114 nM | > 20000 nM
C[C@H]1CN(C(=O)CCC2(C3CC3)NC(=O)NC2=O)CCN1c1ccc(F)cc1 (stereo partly drawn) [compound 300, 5-cyclopropyl-5-[3-[(3S)-4-(4-fluorophenyl)-3-methyl-piperazin-1-yl]-3-oxo-propyl]imidazolidine-2,4-dione] | 140 nM | > 20000 nM

Source: patent US9926281B2 (priority 2014, dated 2018)
